Test system: BEAS-2B
Assay: Comprehensive gene expression analysis with Whole Human Genome DNA microarray after EP treatment
Assay type: cell-based
Procedure: Cells of the established normal human airway epithelial cell line BEAS-2B were used in the experiment. These cells were expansively cultured in 10% FBS RPMI-1640, and seeded at a density of 1×10^5/cm^2 on a 24-well plate. After 24 hours 0.1% FBS RPMI-1640 was substituted, and EP was administered to a final concentration of 0 or 1 mM (n=4). After 24 hours, the cells were used as the DNA microarray samples. RNA was extracted using a QIAGEN RNeasy Mini Kit. The DNA microarray test was performed using a Whole Human Genome DNA microarray 4×44K (Agilent), and the necessary labeling reagents and the like for the DNA microarray test were all from Agilent. The DNA microarray test data were analyzed statistically with GeneSpring (Agilent) dedicated analysis software, and gene function analysis (Gene Ontology (GO) analysis) was performed based on differential expression. The purpose of the GO analysis is to determine stochastically the degree to which gene sets with statistically significant differential expression correspond to known functional classification gene sets. […] The p-value is calculated according to the following formula.

[1] = probe A_23_P149529, 1 mM EP, 24 h
[2] = probe A_23_P151294, NM_000619, EP vs control
[3] = probe A_23_P151294, 1 mM EP, 24 h
[4] = probe A_23_P151649, NM_080649, EP vs control
[5] = probe A_23_P156310, 1 mM EP, 24 h
[6] = probe A_23_P159210, 1 mM EP, 24 h
[7] = probe A_23_P160025, 1 mM EP, 24 h
[8] = probe A_23_P163787, 1 mM EP, 24 h
[9] = probe A_23_P167096, 1 mM EP, 24 h
[10] = probe A_23_P167585, NM_005260, EP vs control
[11] = probe A_23_P168882, 1 mM EP, 24 h
[12] = probe A_23_P168909, 1 mM EP, 24 h
[13] = probe A_23_P169030, 1 mM EP, 24 h
[14] = probe A_23_P169738, 1 mM EP, 24 h
[15] = probe A_23_P201808, 1 mM EP, 24 h
[16] = probe A_23_P202978, 1 mM EP, 24 h
[17] = probe A_23_P206077, 1 mM EP, 24 h
[18] = probe A_23_P206396, 1 mM EP, 24 h
[19] = probe A_23_P206661, NM_000903, EP vs control
[20] = probe A_23_P207003, 1 mM EP, 24 h
[21] = probe A_23_P207999, 1 mM EP, 24 h
[22] = probe A_23_P208706, 1 mM EP, 24 h
[23] = probe A_23_P209625, NM_000104, EP vs control
[24] = probe A_23_P211762, 1 mM EP, 24 h
[25] = probe A_23_P211957, 1 mM EP, 24 h
[26] = probe A_23_P213706, NM_000589, EP vs control
[27] = probe A_23_P213745, NM_004887, EP vs control
[28] = probe A_23_P214950, 1 mM EP, 24 h
[29] = probe A_23_P217866, 1 mM EP, 24 h
[30] = probe A_23_P250554, 1 mM EP, 24 h
[31] = probe A_23_P252817, 1 mM EP, 24 h
[32] = probe A_23_P253932, 1 mM EP, 24 h
[33] = probe A_23_P255653, 1 mM EP, 24 h
[34] = probe A_23_P258194, 1 mM EP, 24 h
[35] = probe A_23_P258310, NM_144651, EP vs control
[36] = probe A_23_P259071, NM_001657, EP vs control
[37] = probe A_23_P303210, 1 mM EP, 24 h

NCCOP(=O)(O)O [EP, Ethanolamine phosphate]
TACSTD2 expression R*: Ratio to control [1]: 1.507 times
TACSTD2 expression log2 [ratio] [1]: 0.591
IFNG gene expression, R* ratio to control [2]: 0.611 times
IFNG gene expression, log2 [ratio] [2]: −0.710
IFNG expression R*: Ratio to control [3]: 0.611 times
IFNG expression log2 [ratio] [3]: −0.710
APEX1 gene expression, R* ratio to control [4]: 1.455 times
APEX1 gene expression, log2 [ratio] [4]: 0.541
SKP2 expression R*: Ratio to control [5]: 1.531 times
SKP2 expression log2 [ratio] [5]: 0.615
CDKN1A expression R*: Ratio to control [6]: 0.439 times
CDKN1A expression log2 [ratio] [6]: −1.187
IFI16 expression R*: Ratio to control [7]: 0.629 times
IFI16 expression log2 [ratio] [7]: −0.669
MMP2 expression R*: Ratio to control [8]: 1.578 times
MMP2 expression log2 [ratio] [8]: 0.658
VEGFC expression R*: Ratio to control [9]: 1.637 times
VEGFC expression log2 [ratio] [9]: 0.711
GDF9 gene expression, R* ratio to control [10]: 0.357 times
GDF9 gene expression, log2 [ratio] [10]: -1.49
TP53INP1 expression R*: Ratio to control [11]: 0.395 times
TP53INP1 expression log2 [ratio] [11]: −1.339
ZFPM2 expression R*: Ratio to control [12]: 1.678 times
ZFPM2 expression log2 [ratio] [12]: 0.746
TNFRSF10B expression R*: Ratio to control [13]: 0.636 times
TNFRSF10B expression log2 [ratio] [13]: −0.653
SOX7 expression R: Ratio to control [14]: 0.362 times
SOX7 expression log2 [ratio] [14]: −1.464
PPAP2B expression R*: Ratio to control [15]: 1.919 times
PPAP2B expression log2 [ratio] [15]: 0.941
CASP1 expression R*: Ratio to control [16]: 0.641 times
CASP1 expression log2 [ratio] [16]: −0.642
AEN expression R*: Ratio to control [17]: 0.420 times
AEN expression log2 [ratio] [17]: −1.253
CKLF expression R*: Ratio to control [18]: 1.601 times
CKLF expression log2 [ratio] [18]: 0.679
NQO1 gene expression, R* ratio to control [19]: 1.480 times
NQO1 gene expression, log2 [ratio] [19]: 0.566
SEPT4 expression R*: Ratio to control [20]: 0.503 times
SEPT4 expression log2 [ratio] [20]: −0.990
PMAIP1 expression R: Ratio to control [21]: 0.344 times
PMAIP1 expression log2 [ratio] [21]: −1.540
BAX expression R*: Ratio to control [22]: 0.453 times
BAX expression log2 [ratio] [22]: −1.143
CYP1B1 gene expression, R* ratio to control [23]: 1.584 times
CYP1B1 gene expression, log2 [ratio] [23]: 0.663
COL8A1 expression R*: Ratio to control [24]: 1.643 times
COL8A1 expression log2 [ratio] [24]: 0.716
TGFBR2 expression R*: Ratio to control [25]: 1.634 times
TGFBR2 expression log2 [ratio] [25]: 0.708
IL4 gene expression, R* ratio to control [26]: 0.420 times
IL4 gene expression, log2 [ratio] [26]: −1.251
CXCL14 gene expression, R* ratio to control [27]: 0.364 times
CXCL14 gene expression, log2 [ratio] [27]: −1.456
PERP expression R: Ratio to control [28]: 0.521 times
PERP expression log2 [ratio] [28]: −0.941
1FI16 expression R*: Ratio to control [29]: 0.585 times
1FI16 expression log2 [ratio] [29]: −0.773
AGGF1 expression R*: Ratio to control [30]: 1.523 times
AGGF1 expression log2 [ratio] [30]: 0.607
SST expression R: Ratio to control [31]: 0.666 times
SST expression log2 [ratio] [31]: −0.587
FAIM expression R*: Ratio to control [32]: 1.670 times
FAIM expression log2 [ratio] [32]: 0.740
TNFRSF10A expression R*: Ratio to control [33]: 0.402 times
TNFRSF10A expression log2 [ratio] [33]: −1.314
A1FM3 expression R*: Ratio to control [34]: 0.580 times
A1FM3 expression log2 [ratio] [34]: −0.761
PXDNL gene expression, R* ratio to control [35]: 2.426 times
PXDNL gene expression, log2 [ratio] [35]: 1.278
AREG gene expression, R* ratio to control [36]: 0.128 times
AREG gene expression, log2 [ratio] [36]: −2.969
IKBIP expression R*: Ratio to control [37]: 0.468 times
IKBIP expression log2 [ratio] [37]: −1.095
